Patent US10232043B2, “Photoactivated molecules for light-induced modulation of the activity of electrically excitable cells and methods of using the same” (UNIVERSITY OF SOUTHERN CALIFORNIA, priority 2015, dated 2019)
Entries after “also recorded” stand apart in the source; their conditions may differ.

Key:
INS cells = assay: Whole cell patch clamp, current-clamp membrane potential under light; format: cell-based, rat; settings: for light-induced increase of membrane potential: 488 nm
Method: Membrane potential was monitored using whole cell patch clamp in current-clamp mode. Cultured cells (INS and HEK293) were plated on a glass-bottomed culture dishes 1-3 days prior to recording. Cells were incubated in standard extracellular solution with or without 10 μM RubpyC17 compound for approximately 1.5-2 minutes, then washed and incubated with standard extracellular solution without additional supplementation, or with 2-5 mM ascorbate, 100 μM sodium ferrocyanide, or 100-200 μM potassium ferricyanide, as indicated. The chamber was transferred to the microscope stage. Extracellular solution consisted of 140 mM NaCl, 2.8 mM KCl, 10 mM HEPES, 1 mM MgCl2, 2 mM CaCl2, 10 mM glucose, pH adjusted to 7.3, and osmolarity adjusted to 300-310. Conventional whole-cell patch clamp recordings were performed with an EPC-9 amplifier and Pulse software (HEKA Electronics). Pipette electrodes of 1.8-3.5 Mohm were fire polished before use. Intracellular solution consisted of: 145 mM KCl, 10 mM NaCl, 1 mM MgCl2, 1 mM EGTA, 2 mM ATP, 0.3 mM GTP and 10 mM HEPES, pH adjusted to 7.3 and osmolarity adjusted to 290-300 mOsm. To monitor changes in membrane voltage/potential, cells were patch clamped in current-clamp mode. Access resistances were in the range of 3-8 Mohm. Using Pulse, membrane potentials were recorded before, during and after illumination by the argon ion laser at 488 nm with an irradiance value of 0.458 mE s^−1 m^−2 or by a xenon lamp source through a 470/40 nm bandpass excitation filter with an irradiance value of 0.480 mE s^−1 m^−2. The duration of illumination varied and the timing is indicated by bars on the figures.
Initial attempts were tied to INS and HEK cells, both cells that are not excitable under normal conditions (INS cells were maintained in low glucose <3 mM to prevent action potentials). The cells were incubated in 10 μM of RubpyC17 compound for approximately 2 minutes then washed with standard extracellular solution, supplemented with 2 mM ascorbate. It was hypothesized that when RubpyC17 is incorporated into the cell membrane, illumination would induce accumulation of negative charges at the outer face of the cell membrane, due to transfer of an electron from ascorbate to the photoactivated RubpyC17 resulting in membrane depolarization. To monitor the plasma membrane potential, the cells were patch-clamped in whole-cell configuration in current-clamp mode and membrane voltages were recorded while illuminating the cell at 488 nm (0.46-0.48 mE s^−1 m^−2), though other wavelengths are useful, depending on the embodiment.

chromaffin cells = assay: Cell-attached patch test for membrane perforation; format: cell-based, mouse; settings: in patch pipette, RubpyC17 18 μM, 10 min, amphotericin B within 5 min
Text: FIGS. 21A-21H depict data from various experiments related to characteristics of RubpyC17-loaded cells. […] Inset images shown to the right of trace confirmed proper integration of RubpyC17 in patched cells. FIGS. 21C-21E show the light-induced action potential firing in chromaffin cells was not due to biophysical changes in voltage-gated ion channels as there were no significant changes in current-voltage relationships (21C-21D) nor in steady-state activation curve (21E) in RubpyC17-loaded chromaffin cells before (open circle) or during (open circle) light illumination. […] Peak inward currents from each stimulation jump were plotted against corresponding stimulating voltages (n=6). […] Data from representative cell is shown (n=5). […] Currents resulting from capacitor-like behavior of chromaffin cell membranes during hyperpolarizing jumps to −85 mV from a resting membrane potential of −80 mV were recorded 5 min following giga-seal formation for amphoterecin B (bottom trace) or 10 min following giga-seal formation for RubpyC17 (top trace).
Finally, to test whether illumination of RubpyC17 incorporated in cell membranes causes nonspecific membrane poration or other damage, 18 μM RubpyC17 was loaded inside a patch pipette and attached to a cell (gigaseal formation) in the cell-attached configuration. This is the same configuration used routinely for perforated-patch recording. […]

CCCCCCCCCCCCCCCCCc1ccnc(-c2cc(C)ccn2)c1.F[P-](F)(F)(F)(F)F.F[P-](F)(F)(F)(F)F.[Ru+2].c1ccc(-c2ccccn2)nc1.c1ccc(-c2ccccn2)nc1 [RubpyC17, [Ru(bpy)2(bpy-C17)](PF6)2] was tested, and the “continuous illumination required to reach maximum light-triggered depolarization” value (INS cells; 0.46-0.48 mE s−1 m2, FIGS. 18B-18F) was roughly 30 s, the “light-induced increase of membrane potential” value (INS cells; INS cells, 10 μM ~2 min, 2 mM ascorbate) was 15.9 ± 4.6 mV and the “light-induced increase of membrane potential” value (INS cells; INS cells, absence of ascorbate) was 9.8 ± 4.5 mV. The “light-triggered depolarization with non-permeating ions” value (INS cells; INS cells, cesium and NMDG instead of potassium and sodium) was “still persisted”, the “illumination time at which cells undergo membrane potential change” value (INS cells; oxidants (ferricyanide) present, FIG. 18A) was no less than 10 s and the “reversibility of light-induced depolarization” value (INS cells; presence of reductants) was “appears to be irreversible”. For the same compound, the “illumination time at which cells undergo membrane potential change” value (INS cells; reductants (ascorbate) present, INS and HEK293T (FIG. 18A)) was no less than 25 s and the “capacitive charging transient (membrane perforation)” value (chromaffin cells) was “an increase in the capacitive charging transient was not detected; also recorded: did not perforate chromaffin cells”.
